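Each compound was tested at five concentrations against cells in 96-well plates for 48 hours. TGI marks complete inhibition of growth.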
Legend:
Assay in all cases: NCI tumour cell line growth inhibition, 48 h
[1] = tested on: RXF-631 renal
[2] = tested on: LXFL 529 NSCLC
[3] = tested on: SNB-78 CNS
[4] = tested on: DLD-1 colon
[5] = tested on: DMS 114 small cell lung
[6] = tested on: HOP-18 NSCLC
[7] = tested on: DMS 273 small cell lung
[8] = tested on: SN12K1 renal
[9] = tested on: XF 498 CNS
[10] = tested on: P388 leukemia
[11] = tested on: P388/ADR leukemia

| Structure (SMILES) | TGI [1] | TGI [2] | TGI [3] | TGI [4] | TGI [5] | TGI [6] | TGI [7] | TGI [8] | TGI [9] | TGI [10] | TGI [11] |
| --- | --- | --- | --- | --- | --- | --- | --- | --- | --- | --- | --- |
| CC(C)c1cccc(C(C)C)c1NC(=S)Nc1ccccc1 | > 100 µM | > 100 µM | > 100 µM | > 100 µM | > 100 µM | > 100 µM | > 100 µM |  |  |  |  |
| CSc1nc(NC2OC(CO)C(O)C(O)C2O)c(N)c(=O)n1C (stereo not given) |  |  | > 100 µM | > 100 µM | > 100 µM | > 100 µM | > 100 µM | > 100 µM | > 100 µM | > 100 µM | > 100 µM |
| NC(N)=NCCCS(=O)(=O)Nc1ccc(Nc2c3ccccc3nc3cc([N+](=O)[O-])ccc23)cc1 | > 100 µM | 29.9 µM | > 63.5 µM | > 93.4 µM | 28.8 µM | 58.7 µM | 37.2 µM |  | 27.9 µM |  |  |
| N=C1SCCS1 |  | > 100 µM | > 100 µM | > 100 µM | > 100 µM |  |  |  | > 100 µM |  |  |
| CC[n+]1c(/C=C/c2ccc(N(CCCl)CCCl)cc2)ccc2cc(Br)ccc21 |  | 1.99 µM | 15.4 µM | 16.1 µM | 15.2 µM | 19.6 µM |  |  | 1.18 µM |  |  |

Source: PubChem BioAssay (NCI)
